In US6451341B1, “Time release formulation of vitamins, minerals and other beneficial supplements” (priority 1990, dated 2002):

Assays:
skin tumors = experiment: Effects of antioxidants on skin tumor promotion (DMBA initiation + TPA promotion), antioxidants applied with TPA; type: in vivo, mice (SENCAR); details: 30 weeks
Source text: In one important aspect of the present invention, the formulation includes at least one antioxidant. The antioxidant is preferably selected from the group consisting of butylated hydroxyanisole, butylated hydroxytoluene and propyl gallate. The inventive formulation may include one, or, more preferably, several of the preferred antioxidants in combination. According to one embodiment, the inventive formulation includes butylated hydroxyanisole (BHA) or butylated hydroxytoluene (BHT), and propyl gallate. BHA, BHT and propyl gallate are all antioxidants used to stabilize cosmetic, pharmaceutical, and food products. It has been reported that these agents protect normal cells against radiation, free radicals, toxic chemicals and chemical carcinogens. […] The SENCAR mouse is a valid testing system for the ability of a compound to inhibit tumor initiation and promotion. A good dose-response relationship exists for 7, 12-dimethylbenzanthracene to initiate skin tumors in these mice and they are sensitive to TPA (12-0-tetradecanoylphorbol-13-acetate) promotion [Slaga(1983) “Multistage Skin Carcinogenesis and Specificity of Inhibitors” in: Modulation and Mediation of Cancer by Vitamins, pp. 10-23.]. Further, the preferred antioxidants of the present invention have been reported to protect against cardiovascular disorders, enhance immune function and increase longevity. The preferred antioxidants of the present invention work synergistically with several vitamins, minerals, amino acids, enzymes, and other antioxidants or free radial scavengers included in the formulation of the present invention as will be described in detail below.

skin cancer = experiment: Mouse skin carcinogenesis system; type: in vivo; details: given alone
spontaneous tumors = experiment: Effects of antioxidants in the diet on aging and spontaneous tumor formation in mice; type: in vivo; details: 0.5% in normal laboratory chow; 100 SENCAR mice per group
Source text: Table 2 illustrates the effects of certain antioxidant components of the present formulation on all the known spontaneous tumor formations and longevity in mice.

[1] = 0.5 mg applied simultaneously with TPA 2x/wk, 30 female SENCAR mice

Compound | Tumor Response (% Inhibition) (skin tumors; [1]) | Increase in Lifespan (%) (spontaneous tumors) | Spontaneous Tumor Formation (% of Control) (spontaneous tumors) | further results
CC1=C(/C=C/C(C)=C/C=C/C(C)=C/C=C/C=C(C)/C=C/C=C(C)/C=C/C2=C(C)CCCC2(C)C)C(C)(C)CCC1 [B-carotene, Beta carotene] | 20 |  |  | inhibitory activity in mouse skin carcinogenesis (skin cancer): lack of an inhibitory activity
COc1ccc(O)c(C(C)(C)C)c1 [BHA, butylated hydroxyanisole] | 35 | 132 | 46 % of Control | 
Cc1cc(C(C)(C)C)c(O)c(C(C)(C)C)c1 [BHT, butylated hydroxytoluene] | 32 | 124 | 56 % of Control | 
CCCOC(=O)c1cc(O)c(O)c(O)c1 [Propyl gallate, propyl gallate] | 40 | 127 | 62 % of Control | 
[Se] [Selenium] |  |  |  | Tumor Response (% Inhibition) (skin tumors; 0.004 mg applied simultaneously with TPA 2x/wk): 23 % Inhibition
O=C1O[C@H]([C@@H](O)CO)C(O)=C1O [Vitamin C] | 30 |  |  | 
Vitamin E |  |  |  | Tumor Response (% Inhibition) (skin tumors; 0.1 mg applied simultaneously with TPA 2x/wk): 25 % Inhibition
